Test results from ChEMBL document CHEMBL2346598, “Synthesis and pharmacological characterization of 2-(acylamino)thiophene derivatives as metabolically stable, orally effective, positive allosteric modulators of the GABAB receptor” (J Med Chem, 2013).
pIC50: −log10 of the molar value. Values belong to the compound of their own block, whether it stands above or below them. Active and inactive are the calls of the source. No cut-off for these calls is given here.

Legend:
[1] = organism: Rattus norvegicus; experiment: Positive allosteric modulation of GABAB receptor in rat cortical membranes assessed as stimulation of [35S]GTPgammaS binding up to 100 uM after 30 mins by liquid scintillation counting analysis; format: functional, cell membranes; conditions: Membrane
[2] = organism: Rattus norvegicus; experiment: Positive allosteric modulation of GABAB receptor in rat cortical membranes assessed as potentiation of GABA-induced [35S]GTPgammaS binding after 30 mins by liquid scintillation counting analysis; format: functional, cell membranes; conditions: Membrane
[3] = organism: Rattus norvegicus; experiment: Positive allosteric modulation of GABAB receptor in rat cortical membranes assessed as potentiation of GABA-induced [35S]GTPgammaS binding at 25 uM after 30 mins by liquid scintillation counting analysis relative to GABA; format: functional, cell membranes; conditions: Membrane
[4] = tested on: NIH3T3; experiment: Cytotoxicity against mouse NIH/3T3 cells after 24 hrs by neutral red staining-based UV/visible spectrophotometric analysis; format: cell-based; conditions: NIH3T3, 24 h
[5] = organism: Rattus norvegicus; experiment: Positive allosteric modulation of GABAB receptor in rat cortical membranes assessed as potentiation of GABA-induced [35S]GTPgammaS binding at 2.5 uM after 30 mins by liquid scintillation counting analysis relative to GABA; format: functional, cell membranes; conditions: Membrane
[6] = tested on: Mus musculus; experiment: Hypnotic effect in DBA mouse assessed as potentiation of baclofen-induced loss of righting reflex at 30 mg/kg, ip incubated for 30 mins prior to baclofen-challenge; format: functional, organism-based; parameters: dose 30 mg/kg
[7] = tested on: Mus musculus; experiment: Hypnotic effect in DBA mouse assessed as reduction in baclofen-induced onset of loss of righting reflex over 10 mg/kg, ip incubated for 30 mins prior to baclofen-challenge relative to vehicle-treated control; format: functional, organism-based; parameters: dose 10 mg/kg
[8] = tested on: Mus musculus; experiment: Hypnotic effect in DBA mouse assessed as increase in pentobarbital-induced duration of loss of righting reflex at 300 mg/kg, ip incubated for 30 mins prior to pentobarbital-challenge; format: functional; conditions: route intraperitoneal
[9] = tested on: Mus musculus; experiment: Hypnotic effect in DBA mouse assessed as reduction in pentobarbital-induced onset of loss of righting reflex at 30 mg/kg, ip incubated for 30 mins prior to pentobarbital-challenge (reference value: 60.0 +/- 0.0 min); format: functional; conditions: route intraperitoneal
[10] = tested on: Mus musculus; experiment: Hypnotic effect in DBA mouse assessed as increase in pentobarbital-induced duration of loss of righting reflex at 100 mg/kg, ip incubated for 30 mins prior to pentobarbital-challenge; format: functional; conditions: route intraperitoneal
[11] = tested on: Mus musculus; experiment: Hypnotic effect in ip dosed DBA mouse assessed as reduction in baclofen-induced onset of loss of righting reflex incubated 30 mins prior to baclofen-challenge; format: functional, organism-based
[12] = tested on: Mus musculus; experiment: Hypnotic effect in DBA mouse assessed as increase in baclofen-induced duration of loss of righting reflex at 300 mg/kg, ig incubated for 30 mins prior to baclofen-challenge relative to vehicle-treated control; format: functional, organism-based; parameters: dose 300 mg/kg
[13] = tested on: Mus musculus; experiment: Hypnotic effect in DBA mouse assessed as reduction in baclofen-induced onset of loss of righting reflex at 300 mg/kg, ig incubated for 30 mins prior to baclofen-challenge relative to vehicle-treated control; format: functional, organism-based; parameters: dose 300 mg/kg
[14] = tested on: Mus musculus; experiment: Hypnotic effect in DBA mouse assessed as potentiation of pentobarbital-induced loss of righting reflex at 30 mg/kg, ip incubated for 30 mins prior to pentobarbital-challenge; format: functional, organism-based; parameters: dose 30 mg/kg
[15] = tested on: Mus musculus; experiment: Hypnotic effect in DBA mouse assessed as potentiation of baclofen-induced loss of righting reflex at 10 mg/kg, ip incubated for 30 mins prior to baclofen-challenge; format: functional, organism-based; parameters: dose 10 mg/kg
[16] = tested on: Mus musculus; experiment: Hypnotic effect in DBA mouse assessed as potentiation of baclofen-induced loss of righting reflex at 100 mg/kg, ip incubated for 30 mins prior to baclofen-challenge; format: functional, organism-based; parameters: dose 100 mg/kg
[17] = tested on: Mus musculus; experiment: Hypnotic effect in DBA mouse assessed as increase in pentobarbital-induced duration of loss of righting reflex at 30 mg/kg, ip incubated for 30 mins prior to pentobarbital-challenge; format: functional; conditions: route intraperitoneal
[18] = tested on: Mus musculus; experiment: Hypnotic effect in DBA mouse assessed as potentiation of pentobarbital-induced loss of righting reflex at 100 mg/kg, ip incubated for 30 mins prior to pentobarbital-challenge; format: functional, organism-based; parameters: dose 100 mg/kg
[19] = tested on: Mus musculus; experiment: Hypnotic effect in DBA mouse assessed as potentiation of baclofen-induced loss of righting reflex at 300 mg/kg, ig incubated for 30 mins prior to baclofen-challenge; format: functional, organism-based; parameters: dose 300 mg/kg
[20] = tested on: Mus musculus; experiment: Hypnotic effect in DBA mouse assessed as potentiation of baclofen-induced loss of righting reflex at 300 mg/kg, ip incubated for 30 mins prior to baclofen-challenge; format: functional, organism-based; parameters: dose 300 mg/kg
[21] = tested on: Mus musculus; experiment: Hypnotic effect in DBA mouse assessed as reduction in pentobarbital-induced onset of loss of righting reflex at 100 mg/kg, ip incubated for 30 mins prior to pentobarbital-challenge (reference value: 60.0 +/- 0.0 min); format: functional; conditions: route intraperitoneal
[22] = tested on: Mus musculus; experiment: Hypnotic effect in ip dosed DBA mouse assessed as increase in baclofen-induced duration of loss of righting reflex incubated for 30 mins prior to baclofen-challenge; format: functional, organism-based
[23] = tested on: Mus musculus; experiment: Hypnotic effect in DBA mouse assessed as potentiation of baclofen-induced loss of righting reflex at 3 mg/kg, ip incubated for 30 mins prior to baclofen-challenge; format: functional, organism-based; parameters: dose 3 mg/kg
[24] = organism: Rattus norvegicus; experiment: Positive allosteric modulation of GABAB receptor in rat cortical membranes assessed as potentiation of GABA-induced [35S]GTPgammaS binding at 10 uM after 30 mins by liquid scintillation counting analysis relative to GABA; format: functional, cell membranes; conditions: Membrane
[25] = tested on: Mus musculus; experiment: Hypnotic effect in DBA mouse assessed as potentiation of pentobarbital-induced loss of righting reflex at 300 mg/kg, ip incubated for 30 mins prior to pentobarbital-challenge; format: functional, organism-based; parameters: dose 300 mg/kg
[26] = tested on: Mus musculus; experiment: Hypnotic effect in DBA mouse assessed as increase in baclofen-induced duration of loss of righting reflex at 100 to 300 mg/kg, ip incubated for 30 mins prior to baclofen-challenge relative to vehicle-treated control; format: functional, organism-based
[27] = tested on: Mus musculus; experiment: Hypnotic effect in DBA mouse assessed as reduction in pentobarbital-induced onset of loss of righting reflex at 300 mg/kg, ip incubated for 30 mins prior to pentobarbital-challenge (reference value: 60.0 +/- 0.0 min); format: functional; conditions: route intraperitoneal
[28] = Ratio of compound IC50 to COR628 IC50 for mouse NIH/3T3 cells; format: ADME, cell-based, NIH3T3; conditions: read-out: Ratio IC50
[29] = Ratio of compound IC50 to COR627 IC50 for mouse NIH/3T3 cells; format: ADME, cell-based, NIH3T3; conditions: read-out: Ratio IC50

Activity [1]: inactive | Activity [2]: inactive
Structure (SMILES): CCc1c(C)sc(NC(C)=O)c1C(=O)OC

Activity [1]: inactive | Activity [2]: inactive
Structure (SMILES): CCc1c(C)sc(NC(=O)Cc2ccccc2)c1C(=O)OC

Activity [1]: inactive | Activity [2]: inactive
Structure (SMILES): COC(=O)c1c(NC(=O)c2ccccc2)sc2c1CCCC2

Activity [1]: inactive | Activity [2]: inactive
Structure (SMILES): CCc1c(C)sc(NC(=O)c2ccc(Cl)cc2)c1C(=O)OC(C)(C)C

Activity [1]: inactive | Activity [2]: inactive
Structure (SMILES): CCc1c(C)sc(NC(=O)c2ccc(-c3cccnc3)cc2)c1C(=O)OC

Activity [1]: inactive | Activity [2]: inactive
Structure (SMILES): CCCOC(=O)c1c(NC(=O)c2ccc(Cl)cc2)sc(C)c1CC

Activity [1]: inactive | Activity [2]: inactive
Structure (SMILES): CCc1c(C)sc(N(C)C(=O)c2ccc(Cl)cc2)c1C(=O)OC

Activity [1]: inactive | Activity [2]: inactive
Structure (SMILES): CCc1c(C)sc(NC(=O)C(C)(C)C)c1C(=O)OC

Activity [1]: inactive | Activity [3]: 5.9% | Activity [2]: inactive | Activity [5]: 2.9%
Structure (SMILES): CCc1c(C)sc(NS(=O)(=O)c2ccccc2)c1C(=O)OC
pIC50 [4]: 3.84

Activity [1]: inactive | Activity [2]: inactive
Structure (SMILES): CCc1c(C)sc(NS(=O)(=O)C2CCCCC2)c1C(=O)OC

Activity [1]: inactive | Activity [2]: inactive
Structure (SMILES): COc1ccc(C(=O)Nc2sc3c(c2C#N)CCCC3)cc1OC

Activity [1]: inactive | Activity [3]: 12.1% | Activity [2]: inactive | Activity [5]: 3%
Structure (SMILES): CCc1c(C)sc(NC(=O)C2CCCC2)c1C(=O)OC
pIC50 [4]: 4.47

Activity [1]: inactive | Activity [2]: inactive
Structure (SMILES): CCc1c(C)sc(NC(=O)c2ccccc2Cl)c1C(=O)OC

Activity [1]: inactive | Activity [2]: inactive
Structure (SMILES): CCc1c(C)sc(NC(=O)c2ccc(C)cc2)c1C(=O)OC(C)(C)C

Activity [1]: inactive | Activity [2]: inactive
Structure (SMILES): CCc1c(C)sc(NC(=O)c2ccc([N+](=O)[O-])cc2)c1C(=O)OC

Activity [1]: inactive | Activity [3]: 12% | Activity [2]: inactive | Activity [5]: -5.6%
Structure (SMILES): COC(=O)c1c(NC(=O)C2CCCCC2)sc2c1CCCC2
pIC50 [4]: 4.21

Activity [1]: inactive | Activity [2]: inactive
Structure (SMILES): CCc1c(C)sc(NC(=O)C2CC2)c1C(=O)OC

Activity [1]: inactive | Activity [2]: inactive
Structure (SMILES): CCc1c(C)sc(NS(=O)(=O)c2ccc(C)cc2)c1C(=O)OC

Activity [3]: 15.1% | Activity [5]: 2%
Structure (SMILES): CCc1c(C)sc(NC(=O)C2CCCCC2)c1C(=O)OC
pIC50 [4]: 4.48

Activity [1]: inactive | Activity [3]: 11% | Activity [2]: inactive | Activity [5]: 4%
Structure (SMILES): CCc1c(C)sc(NC(=O)c2cccc(Cl)c2)c1C(=O)OC

Further lines, the compound ahead of its results:

Structure (SMILES): CCc1c(C)sc(NC(=O)C23CC4CC(CC(C4)C2)C3)c1C(=O)OC
Activity [3]: 22% | pIC50 [4]: 4.49 | Activity [5]: 9.2%

Structure (SMILES): CCc1c(C)sc(NC(=O)c2ccccc2)c1C(=O)OC
Activity [1]: inactive | Activity [3]: 12% | Activity [2]: inactive | pIC50 [4]: 4.18 | Activity [5]: 3.1%

Structure (SMILES): CSc1nc(NC2CCCC2)c([N+](=O)[O-])c(NC2CCCC2)n1 [GS-39783]
Activity [6]: Active | Activity [7]: Active | Time [8]: 2.3 min | Time [9]: 60 min | Time [10]: 0 min | Activity [11]: Dose-dependent effect | Activity [12]: Active | Activity [13]: Active | Activity [14]: inactive | Activity [15]: Active | Activity [16]: Active | Time [17]: 0 min | Activity [18]: inactive | Activity [19]: Active | pIC50 [4]: 4.22 | Activity [20]: Active | Time [21]: 60 min | Activity [22]: Dose-dependent effect | Activity [23]: inactive | Activity [24]: 59% | Activity [25]: Active | Activity [26]: Active | Time [27]: 57.3 min

Structure (SMILES): COC(=O)c1c(NC(=O)c2ccc(OC)c(OC)c2)sc2c1CCCC2
Activity [1]: inactive | Activity [3]: 9% | Activity [2]: inactive | Activity [5]: -4.1%

Structure (SMILES): CCCOC(=O)c1c(NC(=O)c2ccc(C)cc2)sc(C)c1CC
Activity [1]: inactive | Activity [2]: inactive

Structure (SMILES): COC(=O)c1ccsc1NC(=O)c1ccc(Cl)cc1
Activity [1]: inactive | Activity [2]: inactive

Structure (SMILES): CCc1c(C)sc(NC(=O)c2ccc(-c3ccc(C)cc3)cc2)c1C(=O)OC
Activity [1]: inactive | Activity [2]: inactive

Structure (SMILES): Cc1ncc(-c2ccc(C(F)(F)F)cc2)c(N[C@@H]2C[C@H]3CC[C@@H]2C3)n1
pIC50 [4]: 4.46

Structure (SMILES): CCc1c(C)sc(NC(=O)Oc2ccccc2)c1C(=O)OC
Activity [1]: inactive | Activity [3]: 8.2% | Activity [2]: inactive | Activity [5]: 3.9%

Structure (SMILES): CCc1c(C)sc(NC(=O)c2ccc(I)cc2)c1C(=O)OC
Activity [1]: inactive | Activity [2]: inactive

Structure (SMILES): CCc1c(C)sc(NC(=O)c2ccc(OC)cc2)c1C(=O)OC
Activity [1]: inactive | Activity [2]: inactive

Structure (SMILES): CCc1c(C)sc(NC(=O)c2ccc(Br)cc2)c1C(=O)OC
Activity [1]: inactive | Activity [2]: inactive

Structure (SMILES): CCc1c(C)sc(NC(=O)c2ccc(-c3ccccc3)cc2)c1C(=O)OC
Activity [1]: inactive | Activity [2]: inactive

Structure (SMILES): N#Cc1c(NC(=O)C2CCCCC2)sc2c1CCCC2
Activity [1]: inactive | Activity [2]: inactive | selectivity ratio [28]: 4 | selectivity ratio [29]: 4

Structure (SMILES): COC(=O)c1ccsc1NC(=O)c1ccccc1
Activity [1]: inactive | Activity [2]: inactive
